Laboratory results taken from ChEMBL document CHEMBL4837249, “Discovery of Potent Antiallergic Agents Based on an o-Aminopyridinyl Alkynyl Scaffold” (J Med Chem, 2021).
Calls of active or inactive are those of the source. The rule behind the calls is not given here.

How the values were obtained:
RBL-2H3 [1] = experiment: Inhibition of Akt phosphorylation in rat RBL-2H3 cells assessed as inhibition of Fc epsilonRI-mediated signal transduction by Western blot analysis; type: cell-based; settings: dose 8-200 nM
RBL-2H3 [2] = experiment: Antiallergic activity against anti-DNP-IgE sensitized rat RBL-2H3 cells assessed as […] of degranulation by measuring beta-hexosaminidase release using P-nitrophenyl-N-acetyl-D-glucosamide as substrate at 0.04 uM measured after 1 hr by microplate reader relative to control; type: functional
[3] = Oral bioavailability in BALB/c mouse at 20 mg/kg measured up to 24 hrs by LC-MS/MS analysis; type: ADME, organism-based; settings: in vivo
[4] = Toxicity in anti-DNP IgE sensitized BALB/c mouse assessed as hepatopathy at 40 mg/kg, po; type: organism-based; settings: in vivo
[5] = MRT in BALB/c mouse at 2 mg/kg, iv measured up to 24 hrs by LC-MS/MS analysis; type: ADME, organism-based; settings: in vivo
Mus musculus = experiment: Antiallergic activity against anti-DNP IgE sensitized house dust mite-induced BALB/c mouse pulmonary allergic inflammation model assessed as by reduction in serum total IgE level at 40 mg/kg, po measured every 5 mins for 60 mins; type: functional, organism-based
[6] = Half life in BALB/c mouse at 20 mg/kg, po measured up to 24 hrs by LC-MS/MS analysis; type: ADME, organism-based; settings: in vivo
[7] = Volume of distribution at steady state in BALB/c mouse at 2 mg/kg, iv measured up to 24 hrs by LC-MS/MS analysis; type: ADME, organism-based; settings: in vivo, read-out: Vdss
[8] = AUC (0 to t) in BALB/c mouse at 20 mg/kg, po measured up to 24 hrs by LC-MS/MS analysis; type: ADME, organism-based; parameters: route oral, dose 20 mg/kg, time <=24; settings: in vivo
[9] = Toxicity in anti-DNP IgE sensitized BALB/c mouse assessed as diarrhea at 40 mg/kg, po; type: organism-based; settings: in vivo
[10] = target: Proto-oncogene tyrosine-protein kinase Src (Rattus norvegicus) (UniProt Q9WUD9); experiment: Inhibition of Src phosphorylation in rat RBL-2H3 cells assessed as inhibition of Fc epsilonRI-mediated signal transduction by Western blot analysis; type: cell-based; settings: dose 8-200 nM
[11] = target: Tyrosine-protein kinase SYK (Homo sapiens) (UniProt P43405); experiment: Inhibition of human full length recombinant Syk at 5 nM by radiometric scintillation counting analysis relative to control
[12] = target: Tyrosine-protein kinase JAK1 (Homo sapiens) (UniProt P23458); experiment: Inhibition of human recombinant JAK1 at 5 nM radiometric scintillation counting analysis relative to control
Tyrosine-protein kinase JAK1 (Homo sapiens), sequence (P23458 whole entry): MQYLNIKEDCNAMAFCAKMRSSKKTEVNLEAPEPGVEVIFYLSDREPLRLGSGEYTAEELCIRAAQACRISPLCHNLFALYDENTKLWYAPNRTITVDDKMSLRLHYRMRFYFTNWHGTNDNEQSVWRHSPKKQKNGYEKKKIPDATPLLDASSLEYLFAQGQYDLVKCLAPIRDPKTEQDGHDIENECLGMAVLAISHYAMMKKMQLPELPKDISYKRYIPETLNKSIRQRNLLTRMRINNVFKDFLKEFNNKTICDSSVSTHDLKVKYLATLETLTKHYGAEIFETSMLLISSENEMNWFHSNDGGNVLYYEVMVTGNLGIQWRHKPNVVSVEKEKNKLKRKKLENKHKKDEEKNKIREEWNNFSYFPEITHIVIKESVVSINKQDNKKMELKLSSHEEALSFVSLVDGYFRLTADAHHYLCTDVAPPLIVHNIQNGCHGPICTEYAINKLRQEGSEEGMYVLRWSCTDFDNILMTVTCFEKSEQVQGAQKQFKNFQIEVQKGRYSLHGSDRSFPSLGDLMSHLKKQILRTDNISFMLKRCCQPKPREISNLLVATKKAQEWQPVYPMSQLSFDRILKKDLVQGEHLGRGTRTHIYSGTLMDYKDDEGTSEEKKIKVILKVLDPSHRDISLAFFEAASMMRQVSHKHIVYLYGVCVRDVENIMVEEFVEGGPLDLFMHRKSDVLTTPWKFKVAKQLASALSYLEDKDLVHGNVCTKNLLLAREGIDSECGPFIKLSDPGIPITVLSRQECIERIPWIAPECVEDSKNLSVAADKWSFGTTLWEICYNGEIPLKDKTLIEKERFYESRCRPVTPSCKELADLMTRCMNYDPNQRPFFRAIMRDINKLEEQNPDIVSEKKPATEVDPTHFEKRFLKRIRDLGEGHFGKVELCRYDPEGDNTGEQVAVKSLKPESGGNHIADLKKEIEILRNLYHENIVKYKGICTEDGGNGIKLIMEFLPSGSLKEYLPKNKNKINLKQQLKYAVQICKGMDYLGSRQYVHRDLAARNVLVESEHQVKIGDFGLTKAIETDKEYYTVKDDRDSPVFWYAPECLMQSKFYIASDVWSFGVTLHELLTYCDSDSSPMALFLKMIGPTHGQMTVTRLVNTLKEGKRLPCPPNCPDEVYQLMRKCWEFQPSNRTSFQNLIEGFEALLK

Proto-oncogene tyrosine-protein kinase Src (Rattus norvegicus), sequence (Q9WUD9 2-536 limits assumed): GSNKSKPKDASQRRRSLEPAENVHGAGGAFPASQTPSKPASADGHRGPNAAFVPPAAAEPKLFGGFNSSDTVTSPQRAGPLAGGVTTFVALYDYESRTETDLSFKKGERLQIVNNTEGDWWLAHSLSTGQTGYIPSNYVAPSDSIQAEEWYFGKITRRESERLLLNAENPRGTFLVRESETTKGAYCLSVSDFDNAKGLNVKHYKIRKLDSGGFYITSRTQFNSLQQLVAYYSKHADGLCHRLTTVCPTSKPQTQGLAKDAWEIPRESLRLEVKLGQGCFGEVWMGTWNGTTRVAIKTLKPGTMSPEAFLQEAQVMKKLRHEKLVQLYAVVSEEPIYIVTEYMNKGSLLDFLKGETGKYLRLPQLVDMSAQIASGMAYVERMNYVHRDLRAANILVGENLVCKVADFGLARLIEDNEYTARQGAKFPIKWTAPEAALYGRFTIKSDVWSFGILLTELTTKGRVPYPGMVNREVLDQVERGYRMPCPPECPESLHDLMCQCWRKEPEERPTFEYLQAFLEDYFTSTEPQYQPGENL

inhibition [11] [%] | inhibition [12] [%] | SMILES | inhibition (RBL-2H3 [1]) | inhibition at 0.04 µM (RBL-2H3 [2]) [%] | bioavailability [3] [%] | Activity [4] | MRT [5] [h] | Activity (Mus musculus) | half-life [6] [h] | Vd [7] [L/kg] | AUC(0-t) at 24 h [8] [ng·h/mL] | Activity [9] | inhibition [10]
 |  | Cc1ccc(C(=O)Nc2cc(C(F)(F)F)cc(C(F)(F)F)c2)cc1C#Cc1cc(-c2cnn(C)c2)cnc1N | Dose-Dependent Effect | 112 | 99.9 | Non-Toxic | 4.4 | Active | 6.9 | 4 | 21300 | Non-Toxic | Dose-Dependent Effect
-2 | 14 | Cc1ccc(C(=O)Nc2ccc(Cl)cc2Cl)cc1C#Cc1cc(-c2cnn(C)c2)cnc1N |  |  |  |  |  |  |  |  |  |  | 
